Reference: patent US20260365670A1, “EGFR INHIBITORS AND USES THEREOF” (DIZAL (JIANGSU) PHARMACEUTICAL CO., LTD., priority 2022, published 2026)
pIC50: −log10 of the molar value. Where two headings read alike, the source gives them in different places.

How the values were obtained:
[1] = molecular target: T1, EGFR Exon19Del/T790M (Homo sapiens, UniProt P00533, DEL746-750/T790M); assay: Inhibition of EGFR Exon19Del/T790M biochemical enzymatic activity (HTRF); conditions: EGFR Del19-T790M, 1 mM ATP, 1 h, room temperature, read-out: IC50 (nM) @Del19-T790M
T1 construct: purchased Carna Bio
T1 sequence (P00533 with tags, fused parts or gaps DEL746-750/T790M limits assumed): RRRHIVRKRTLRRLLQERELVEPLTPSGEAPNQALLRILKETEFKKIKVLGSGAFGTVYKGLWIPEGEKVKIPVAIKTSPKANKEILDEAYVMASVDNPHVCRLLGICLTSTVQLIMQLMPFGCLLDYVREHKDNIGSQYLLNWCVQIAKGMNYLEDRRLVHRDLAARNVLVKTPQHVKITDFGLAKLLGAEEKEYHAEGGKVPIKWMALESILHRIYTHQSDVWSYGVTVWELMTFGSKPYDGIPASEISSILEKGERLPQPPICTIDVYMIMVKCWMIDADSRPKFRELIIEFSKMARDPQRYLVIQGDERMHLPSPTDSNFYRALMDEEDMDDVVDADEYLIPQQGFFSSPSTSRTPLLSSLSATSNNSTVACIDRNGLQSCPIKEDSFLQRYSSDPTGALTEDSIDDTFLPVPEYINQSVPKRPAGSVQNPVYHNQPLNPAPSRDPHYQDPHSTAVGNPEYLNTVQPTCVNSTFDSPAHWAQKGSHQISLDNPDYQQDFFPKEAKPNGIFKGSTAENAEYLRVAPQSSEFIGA
Procedure, shortened: (§1)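 Phosphorylation of TK Substrate-biotin (1 μM) was measured at 1 mM ATP over a 1 h room-temperature incubation with serially varied compound. Detection was by HTRF ratio and analysis by 4PL fit to IC50.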

[2] = molecular target: T2, EGFR L858R (Homo sapiens, UniProt P00533, L858R); assay: Inhibition of EGFR L858R biochemical enzymatic activity (HTRF); conditions: 1 mM ATP, 1 h, room temperature, read-out: IC50 (nM) @L858R
T2 construct: purchased Carna Bio
Procedure, shortened: as §1

[3] = molecular target: T3, EGFR wild type (Homo sapiens, UniProt P00533); assay: Inhibition of EGFR wild type biochemical enzymatic activity (HTRF); conditions: EGFR WT, 1 mM ATP, 1 h, room temperature, read-out: IC50 (nM) @WT
T3 construct: purchased Carna Bio
T3 sequence (P00533 25-1210): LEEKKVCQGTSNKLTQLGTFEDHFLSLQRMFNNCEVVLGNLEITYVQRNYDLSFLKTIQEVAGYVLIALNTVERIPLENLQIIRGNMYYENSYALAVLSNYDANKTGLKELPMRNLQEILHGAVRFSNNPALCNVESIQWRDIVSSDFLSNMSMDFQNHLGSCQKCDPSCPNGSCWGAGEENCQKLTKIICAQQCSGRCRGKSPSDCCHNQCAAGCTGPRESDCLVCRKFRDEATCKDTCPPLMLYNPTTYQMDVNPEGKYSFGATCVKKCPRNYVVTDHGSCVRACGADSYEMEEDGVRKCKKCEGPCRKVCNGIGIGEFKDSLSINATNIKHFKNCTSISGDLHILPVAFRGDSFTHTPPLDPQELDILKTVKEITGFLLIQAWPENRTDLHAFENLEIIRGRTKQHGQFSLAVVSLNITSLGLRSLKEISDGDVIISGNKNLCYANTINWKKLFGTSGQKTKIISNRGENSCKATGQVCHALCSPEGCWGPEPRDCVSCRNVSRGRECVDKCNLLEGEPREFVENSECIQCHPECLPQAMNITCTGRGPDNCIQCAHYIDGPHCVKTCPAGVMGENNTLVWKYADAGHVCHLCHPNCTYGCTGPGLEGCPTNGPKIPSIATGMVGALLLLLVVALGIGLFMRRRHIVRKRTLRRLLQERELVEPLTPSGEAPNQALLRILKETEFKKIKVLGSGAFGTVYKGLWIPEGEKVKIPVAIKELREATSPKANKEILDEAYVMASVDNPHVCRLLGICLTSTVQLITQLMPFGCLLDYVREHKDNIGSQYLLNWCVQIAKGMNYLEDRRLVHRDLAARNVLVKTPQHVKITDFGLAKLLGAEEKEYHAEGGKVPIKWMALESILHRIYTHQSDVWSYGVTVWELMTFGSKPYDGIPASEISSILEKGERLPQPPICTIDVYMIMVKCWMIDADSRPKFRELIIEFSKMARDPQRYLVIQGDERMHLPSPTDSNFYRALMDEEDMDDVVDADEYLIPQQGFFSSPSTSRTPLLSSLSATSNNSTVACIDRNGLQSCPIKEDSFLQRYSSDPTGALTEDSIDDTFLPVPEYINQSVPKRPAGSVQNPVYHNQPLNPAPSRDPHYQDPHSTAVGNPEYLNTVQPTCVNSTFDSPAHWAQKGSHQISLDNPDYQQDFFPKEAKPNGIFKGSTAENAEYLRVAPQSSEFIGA
Procedure, shortened: as §1

[4] = molecular target: T4, EGFR L858R/T790M (Homo sapiens, UniProt P00533, L858R/T790M); assay: Inhibition of EGFR L858R/T790M biochemical enzymatic activity (HTRF); conditions: EGFR L858R-T790M, 1 mM ATP, 1 h, room temperature, read-out: IC50 (nM) @L858R-T790M
T4 construct: purchased Carna Bio
Procedure, shortened: as §1

[5] = molecular target: T5, EGFR[T790M/C797S/L858R] (Homo sapiens, UniProt P00533, C797S/L858R/T790M); assay: Inhibition of EGFR[T790M/C797S/L858R] biochemical enzymatic activity (HTRF); conditions: EGFR T790M-C797S-L858R, 1 mM ATP, 1 h, room temperature, read-out: IC50 (nM) @T790M- C797S - L858R
T5 construct: purchased Carna Bio
T5 sequence (P00533 25-1210 T790M/C797S/L858R): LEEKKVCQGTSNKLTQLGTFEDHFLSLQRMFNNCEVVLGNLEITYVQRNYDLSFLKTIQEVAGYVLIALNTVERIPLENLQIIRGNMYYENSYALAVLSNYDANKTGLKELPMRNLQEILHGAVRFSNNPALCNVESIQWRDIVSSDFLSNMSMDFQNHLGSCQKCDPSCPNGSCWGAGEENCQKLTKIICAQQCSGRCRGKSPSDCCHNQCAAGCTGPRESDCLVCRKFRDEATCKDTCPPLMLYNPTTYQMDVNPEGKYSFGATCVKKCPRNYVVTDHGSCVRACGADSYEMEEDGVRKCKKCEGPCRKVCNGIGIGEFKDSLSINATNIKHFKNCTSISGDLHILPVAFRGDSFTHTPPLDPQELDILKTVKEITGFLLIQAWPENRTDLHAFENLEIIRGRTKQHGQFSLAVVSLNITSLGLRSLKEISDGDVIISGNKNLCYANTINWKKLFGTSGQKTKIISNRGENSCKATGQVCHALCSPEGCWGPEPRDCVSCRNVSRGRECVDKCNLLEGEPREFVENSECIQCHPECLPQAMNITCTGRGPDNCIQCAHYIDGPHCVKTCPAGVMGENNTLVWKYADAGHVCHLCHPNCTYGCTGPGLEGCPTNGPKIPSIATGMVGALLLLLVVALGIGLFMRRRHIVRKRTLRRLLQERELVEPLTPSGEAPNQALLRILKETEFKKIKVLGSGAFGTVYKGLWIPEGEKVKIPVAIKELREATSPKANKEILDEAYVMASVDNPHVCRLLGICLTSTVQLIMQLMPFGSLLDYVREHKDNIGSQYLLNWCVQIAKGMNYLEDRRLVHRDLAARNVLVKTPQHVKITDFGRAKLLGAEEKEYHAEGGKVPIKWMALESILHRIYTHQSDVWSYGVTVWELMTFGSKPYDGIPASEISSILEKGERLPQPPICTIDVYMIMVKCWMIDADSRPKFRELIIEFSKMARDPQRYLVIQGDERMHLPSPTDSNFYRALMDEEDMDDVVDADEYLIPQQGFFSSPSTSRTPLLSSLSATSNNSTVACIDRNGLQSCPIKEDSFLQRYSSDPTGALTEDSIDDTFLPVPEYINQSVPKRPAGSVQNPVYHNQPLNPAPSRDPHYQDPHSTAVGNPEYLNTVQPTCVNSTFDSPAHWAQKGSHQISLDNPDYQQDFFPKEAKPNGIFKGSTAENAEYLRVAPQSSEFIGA
Procedure, shortened: as §1

[6] = test system: Ba/F3 cells expressing EGFR mutations; assay: Cell proliferation assay, Ba/F3 cells expressing EGFR mutations (CellTiter-Glo, 72 hours); type: cell-based; conditions: CellTiter-Glo
Procedure, shortened: (§2)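 GI50 is the concentration giving 50% proliferation inhibition. Growth for this was normalised to a baseline viability reading taken when compound was added, and to DMSO wells. PC-9 (500 cells/well) and mutant-EGFR Ba/F3 (5000 cells/well) are treated after overnight seeding in RPMI1640-based medium.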

[7] = molecular target: T6, EGFR (C797S L858R) (Homo sapiens, UniProt P00533, C797S/L858R); assay: Inhibition of EGFR (C797S L858R) biochemical enzymatic activity (HTRF); conditions: EGFR L858-C797S, 1 mM ATP, 1 h, room temperature, read-out: IC50 (nM) @L858-C797S
T6 construct: purchased signalchem
Procedure, shortened: as §1

[8] = molecular target: T7, EGFR[T790M/C797S/d746-750] (Homo sapiens, UniProt P00533, C797S/DEL746-750/T790M); assay: Inhibition of EGFR[T790M/C797S/d746-750] biochemical enzymatic activity (HTRF); conditions: EGFR T790M-C797S-Del19, 1 mM ATP, 1 h, room temperature, read-out: IC50 (nM) @T790M - C797S - Del19
T7 construct: purchased Carna Bio
T7 sequence (P00533 with tags, fused parts or gaps DEL746-750/T790M/C797S limits assumed): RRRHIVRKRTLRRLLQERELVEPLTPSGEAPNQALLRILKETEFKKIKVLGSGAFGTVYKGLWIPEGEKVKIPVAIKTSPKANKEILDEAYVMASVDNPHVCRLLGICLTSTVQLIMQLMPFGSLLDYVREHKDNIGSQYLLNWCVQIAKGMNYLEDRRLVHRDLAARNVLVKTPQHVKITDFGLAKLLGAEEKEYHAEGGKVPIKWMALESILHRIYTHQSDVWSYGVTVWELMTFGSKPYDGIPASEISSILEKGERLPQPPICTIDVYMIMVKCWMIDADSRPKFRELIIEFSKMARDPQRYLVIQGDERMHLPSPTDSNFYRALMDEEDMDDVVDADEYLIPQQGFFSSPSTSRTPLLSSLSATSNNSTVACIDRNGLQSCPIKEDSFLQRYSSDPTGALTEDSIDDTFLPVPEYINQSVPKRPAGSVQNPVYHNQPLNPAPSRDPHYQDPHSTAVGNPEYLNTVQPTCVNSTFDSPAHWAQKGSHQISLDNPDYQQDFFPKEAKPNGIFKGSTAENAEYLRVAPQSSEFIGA
Procedure, shortened: as §1

[9] = test system: PC-9; assay: Cell proliferation assay, PC-9 cells (CellTiter-Glo, 72 hours); type: cell-based; conditions: PC9 cells, CellTiter-Glo, read-out: PC9 GI50
Procedure, shortened: as §2

[10] = molecular target: T8, EGFR Exon19Del (Homo sapiens, UniProt P00533, DEL746-750); assay: Inhibition of EGFR Exon19Del biochemical enzymatic activity (HTRF); conditions: EGFR Del19, 1 mM ATP, 1 h, room temperature, read-out: IC50 @Del19
T8 construct: purchased Carna Bio
T8 sequence (P00533 with tags, fused parts or gaps DEL746-750 limits assumed): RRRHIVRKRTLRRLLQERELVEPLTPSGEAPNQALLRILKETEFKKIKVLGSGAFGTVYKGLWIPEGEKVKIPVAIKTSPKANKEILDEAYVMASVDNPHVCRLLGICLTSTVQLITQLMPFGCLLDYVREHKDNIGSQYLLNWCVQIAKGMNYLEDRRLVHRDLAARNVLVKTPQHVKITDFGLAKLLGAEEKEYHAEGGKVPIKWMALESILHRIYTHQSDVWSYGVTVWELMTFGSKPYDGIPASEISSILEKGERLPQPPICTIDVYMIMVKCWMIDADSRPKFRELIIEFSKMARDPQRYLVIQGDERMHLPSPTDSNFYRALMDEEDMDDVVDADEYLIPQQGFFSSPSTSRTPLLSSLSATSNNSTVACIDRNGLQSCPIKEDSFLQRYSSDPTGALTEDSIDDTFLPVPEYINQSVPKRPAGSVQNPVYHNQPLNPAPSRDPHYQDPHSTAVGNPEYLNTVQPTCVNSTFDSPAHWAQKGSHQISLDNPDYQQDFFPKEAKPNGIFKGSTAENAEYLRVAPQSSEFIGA
Procedure, shortened: as §1

[11] = test system: A-431; assay: Cell proliferation GI50, A-431 cells (Table 6); type: cell-based
[12] = molecular target: T9, EGFR (d746-750 C797S) (Homo sapiens, UniProt P00533, C797S/DEL746-750); assay: Inhibition of EGFR (d746-750 C797S) biochemical enzymatic activity (HTRF); conditions: EGFR Del19-C797S, 1 mM ATP, 1 h, room temperature, read-out: IC50 (nM) @Del19-C797S
T9 construct: purchased signalchem
T9 sequence (P00533 with tags, fused parts or gaps DEL746-750/C797S limits assumed): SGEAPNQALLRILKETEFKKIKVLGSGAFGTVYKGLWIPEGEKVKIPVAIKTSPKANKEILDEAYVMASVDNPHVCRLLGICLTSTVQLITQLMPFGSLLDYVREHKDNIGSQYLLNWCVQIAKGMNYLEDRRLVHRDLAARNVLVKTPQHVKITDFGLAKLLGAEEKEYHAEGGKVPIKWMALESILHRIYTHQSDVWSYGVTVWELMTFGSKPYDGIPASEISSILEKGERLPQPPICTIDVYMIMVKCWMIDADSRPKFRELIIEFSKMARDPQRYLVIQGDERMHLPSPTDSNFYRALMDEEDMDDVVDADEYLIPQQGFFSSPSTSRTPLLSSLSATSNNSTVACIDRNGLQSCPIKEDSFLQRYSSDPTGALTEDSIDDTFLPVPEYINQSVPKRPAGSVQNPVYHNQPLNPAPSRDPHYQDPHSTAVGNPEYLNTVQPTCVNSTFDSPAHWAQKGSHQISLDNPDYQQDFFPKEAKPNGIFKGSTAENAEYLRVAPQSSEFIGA
Procedure, shortened: as §1

[13] = BaF3 cells, EGFR DEL19-C797S, read-out: DEL19-C797S/BaF3 GI50
[14] = BaF3 cells, EGFR DEL19-T790-C797S, read-out: DEL19-T790-C797S/BaF3 GI50
[15] = BaF3 cells, EGFR L858R, read-out: L858R/BaF3 GI50
[16] = BaF3 cells, EGFR L858R-C797S, read-out: L858R-C797S/BaF3 GI50
[17] = BaF3 cells, EGFR L858R-T790-C797S, read-out: L858R-T790-C797S/BaF3 GI50
[18] = BaF3 cells, EGFR L858R-T790M, read-out: L858R-T790M/BaF3 GI50
[19] = EGFR DEL19-T790M, read-out: DEL19-T790M GI50
[20] = Homo sapiens, A-431, A-431 cells

SMILES	IC50 [1] [nM]	IC50 [2] [nM]	IC50 [3] [nM]	IC50 [4] [nM]	IC50 [5] [nM]	GI50 [6, 13] [nM]	GI50 [6, 14] [nM]	GI50 [6, 15] [nM]	GI50 [6, 16] [nM]	GI50 [6, 17] [nM]	GI50 [6, 18] [nM]	GI50 [6, 19] [nM]	IC50 [7] [nM]	IC50 [8] [nM]	GI50 [9] [nM]	pIC50 [10]	GI50 ([11]; A-431 cells) [nM]	IC50 [12] [nM]	GI50 [11, 20] [nM]	other results
CN1CCN(c2ccc3c(c2)nc2n3C34CCC(CN(CCOc5c(cnn5C)-c5cc(cn(C)c5=O)C(=O)N2)C3)C4)CC1 (stereo not drawn) [Example A60B, 15,21-dimethyl-6-(4-methylpiperazin-1-yl)-23-oxa-2,9,11,15,20,21,26-heptaazaheptacyclo[24.4.1.1^{1,28}.1^{13,17}.0^{2,10}.0^{3,8}.0^{18,22}]tritriaconta-3,5,7,9,13,17(33),18(22),19-octaene-12,16-dione]	0.82	135	4480	49	44	1.4	4.4	21	15	8.4	53	6.9	65	0.81	15	8.49	1340	1.7		
Cn1ncc2c1OCCN1CC3CCC(C3)(C1)n1c(nc3ccc(N4CC(N5CCOCC5)C4)cc31)NC(=O)c1cc-2c(=O)n(C)c1 (single isomer, unassigned) [Example A69A]	> 5000	> 5000	> 5000	> 5000	> 5000	227	366	643	598	503	1530	465	> 5000	> 5000	723	5.92	9380	1780		
CN1CCC2(CCN(c3ccc4nc5n(c4c3)C34CCC(CN(CCOc6c(cnn6C)-c6cc(cn(C)c6=O)C(=O)N5)C3)C4)C2)C1 (single isomer, unassigned) [Example A81A]	> 5000	1530	> 5000	> 5000	> 5000	107	258	319	170	381	350	178	> 5000	> 5000	247	6.39		389	1320	
CN1CCC2CN(c3ccc4nc5n(c4c3)C34CCC(CN(CCOc6c(cnn6C)-c6cc(cn(C)c6=O)C(=O)N5)C3)C4)CC21 (single isomer, unassigned) [Example A79B]	10	27	126	12	8.3	0.7	10	12	8.5	14	37	13	13	11	23	8.20		5	1280	
CN1CCN(c2ccc3nc4n(c3c2)CC2(CCCOc3c(cnn3C)-c3cc(cn(C)c3=O)C(=O)N4)CC2)CC1 [Example A18, 5′,26′-dimethyl-16′-(4-methylpiperazin-1-yl)-7′-oxa-4′,5′,13′,20′,22′,26′-hexaazaspiro[cyclopropane-1,11′-pentacyclo[22.3.1.0^{2,6}.0^{13,21}.0^{14,19}]octacosan]-1′(28′),2′(6′),3′,14′,16′,18′,20′,24′-octaene-23′,27′-dione]	41	1370	> 5000	1140	1720								929	44		7.27		91	377	GI50 ([6]; Mus musculus, BaF3, 72 h, BaF3 cells, EGFR DEL19-C797S, read-out: DEL19-C797S/BaF3 GI50): 52.9 nM; GI50 ([6]; Mus musculus, BaF3, 72 h, BaF3 cells, EGFR DEL19-T790-C797S, read-out: DEL19-T790-C797S/BaF3 GI50): 246 nM; GI50 ([6]; Mus musculus, BaF3, 72 h, BaF3 cells, EGFR L858R, read-out: L858R/BaF3 GI50): 194 nM; GI50 ([6]; Mus musculus, BaF3, 72 h, BaF3 cells, EGFR L858R-C797S, read-out: L858R-C797S/BaF3 GI50): 169 nM; GI50 ([6]; Mus musculus, BaF3, 72 h, BaF3 cells, EGFR L858R-T790-C797S, read-out: L858R-T790-C797S/BaF3 GI50): 309 nM; GI50 ([6]; Mus musculus, BaF3, 72 h, BaF3 cells, EGFR L858R-T790M, read-out: L858R-T790M/BaF3 GI50): 249 nM; GI50 ([6]; Mus musculus, BaF3, 72 h, EGFR DEL19-T790M, read-out: DEL19-T790M GI50): 187 nM; GI50 ([9]; Homo sapiens, PC-9, 72 h): 565 nM
CCN1CCN(c2ccc3nc4n(c3c2)C23CCC(CN(CCOc5c(cnn5C)-c5cc(cn(C)c5=O)C(=O)N4)C2)C3)CC1 (single isomer, unassigned) [Example A107B]	1.8	3	20	2.7	2.1	0.63	1.1	1	2.4	1.5	4.1	1.5	1.9	2	5.2	8.74	267	0.79		
